Data: ChEMBL document CHEMBL4402555, “Impact of the structure-activity relationship of AHL analogues on quorum sensing in Gram-negative bacteria” (Bioorg Med Chem, 2020)
Each block holds one molecule with its values, some of them ahead of it.

Tests used:
[1] = Inhibition of LasR in Escherichia coli JLD271 harboring pSC11/pJN105L using CPRG as substrate incubated for 4 hrs by Miller assay method
[2] = Activation of LasR in Escherichia coli JLD271 harboring pSC11/pJN105L using CPRG as substrate incubated for 4 hrs by Miller assay method
[3] = biological target: T1, Transcriptional activator protein LasR (Pseudomonas aeruginosa (strain ATCC 15692 / PAO1 / 1C / PRS 101 / LMG12228), UniProt P25084); assay: Antagonist activity at LasR in Pseudomonas aeruginosa harboring plasI-LVAgfp assessed as inhibition of GFP production incubated for 6 hrs by fluorescence method
T1 sequence (P25084 whole entry): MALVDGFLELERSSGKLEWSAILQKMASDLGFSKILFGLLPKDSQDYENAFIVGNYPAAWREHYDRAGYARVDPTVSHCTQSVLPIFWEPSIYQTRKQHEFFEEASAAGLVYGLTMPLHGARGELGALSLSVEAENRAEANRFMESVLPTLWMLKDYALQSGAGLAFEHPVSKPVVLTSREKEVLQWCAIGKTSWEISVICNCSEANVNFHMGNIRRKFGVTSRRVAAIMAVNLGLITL

[4] = Antagonist activity at LasR in Escherichia coli JLD271 harboring pSC11/ pJN105L using CPRG as substrate incubated for 4 hrs by Miller assay
[5] = biological target: T2, Transcriptional activator protein LasR (Pseudomonas aeruginosa (strain ATCC 15692 / PAO1 / 1C / PRS 101 / LMG12228)) (UniProt P25084); assay: Antagonist activity at LasR in Pseudomonas aeruginosa PAO-JP2 harboring plasI-LVAgfp assessed as inhibition of GFP expression by measuring reduction in fluorescence intensity at 100 uM incubated for 6 hrs in presence of AI1 by fluorescence based competitive assay relative to control
T2 sequence (whole entry): T1 sequence (P25084 whole entry)

[6] = biological target: T3, Transcriptional activator protein LuxR (Aliivibrio fischeri, UniProt P12746); assay: Antagonist activity at Aliivibrio fischeri LuxR by luminescence method
T3 sequence (P12746 whole entry): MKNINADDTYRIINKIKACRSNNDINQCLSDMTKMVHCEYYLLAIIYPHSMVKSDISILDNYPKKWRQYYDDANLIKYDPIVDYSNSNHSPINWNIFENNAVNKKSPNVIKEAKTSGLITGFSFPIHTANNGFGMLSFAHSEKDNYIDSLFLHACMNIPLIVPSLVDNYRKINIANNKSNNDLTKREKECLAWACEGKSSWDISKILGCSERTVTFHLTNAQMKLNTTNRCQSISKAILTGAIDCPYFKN

[7] = test system: Chromobacterium violaceum; assay: Inhibition of CviI/CviR in Chromobacterium violaceum ATCC 31532 assessed as reduction in violacein production at 40 uM incubated for 24 hrs relative to control
[8] = Inhibition of CviI/CviR in Chromobacterium violaceum ATCC 31532 assessed as reduction in violacein production incubated for 24 hrs
[9] = test system: Pseudomonas aeruginosa PAO1; assay: Inhibition of LasI/LasR in Pseudomonas aeruginosa PAO1 assessed as reduction in swarming motility at 400 uM incubated for 18 hrs relative to control
[10] = test system: Pseudomonas aeruginosa PAO1; assay: Inhibition of LasI/LasR in Pseudomonas aeruginosa PAO1 assessed as reduction in protein-mediated transition from microcolonies to mature biofilm at 400 uM incubated for 22 hrs by crystal violet staining assay relative to control
Pseudomonas aeruginosa [11] = assay: Inhibition of LasI/LasR in Pseudomonas aeruginosa ATCC 9027 assessed as reduction in protein-mediated transition from microcolonies to mature biofilm at 400 uM incubated for 22 hrs by crystal violet staining assay relative to control
Pseudomonas aeruginosa [12] = assay: Inhibition of LasI/LasR in Pseudomonas aeruginosa ATCC 15422 assessed as reduction in protein-mediated transition from microcolonies to mature biofilm at 400 uM incubated for 22 hrs by crystal violet staining assay relative to control
[13] = biological target: T4, Regulatory protein SdiA (Escherichia coli (strain K12)) (UniProt P07026); assay: Inhibition of sdiA in Escherichia coli K-12 assessed as reduction in protein-mediated transition from microcolonies to mature biofilm at 400 uM incubated for 22 hrs by crystal violet staining assay relative to control
T4 sequence (whole entry): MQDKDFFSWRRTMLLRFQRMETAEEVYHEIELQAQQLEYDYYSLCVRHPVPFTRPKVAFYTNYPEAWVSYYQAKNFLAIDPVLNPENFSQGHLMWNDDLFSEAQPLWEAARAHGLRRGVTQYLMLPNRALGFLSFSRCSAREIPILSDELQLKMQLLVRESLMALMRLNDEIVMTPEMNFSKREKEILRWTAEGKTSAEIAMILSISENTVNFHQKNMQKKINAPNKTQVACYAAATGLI

[14] = biological target: T1, Transcriptional activator protein LasR; assay: Antagonist activity at Pseudomonas aeruginosa LasR transfected with lasB-GFP by […] method
[15] = biological target: T1, Transcriptional activator protein LasR; assay: Activation of LasR in Pseudomonas aeruginosa PAO-JP2 harboring plasI-LVAgfp incubated for 6 hrs by fluorescence method
[16] = biological target: T3, Transcriptional activator protein LuxR; assay: Antagonist activity at Aliivibrio fischeri ES114 LuxR after 4 to 8 hrs by luminescence method
[17] = biological target: T1, Transcriptional activator protein LasR; assay: Inhibition of LasR in Pseudomonas aeruginosa PAO-JP2 harboring plasI-LVAgfp incubated for 6 hrs by fluorescence method
[18] = biological target: T2, Transcriptional activator protein LasR (Pseudomonas aeruginosa (strain ATCC 15692 / PAO1 / 1C / PRS 101 / LMG12228)); assay: Antagonist activity at LasR in Pseudomonas aeruginosa PAO1 assessed as inhibition of pyocyanin production at 50 uM incubated for 13 hrs relative to control
[19] = biological target: T3, Transcriptional activator protein LuxR; assay: Agonist activity at Aliivibrio fischeri LuxR by luminescence method

SMILES: CCCCCCCCCNC(=O)CC(=O)Cc1ccccc1
- IC50 [3]: 15 µM
- IC50 [4]: 2000 nM

SMILES: CCCCCCCCCC(=O)CC(=O)CCN[C@H]1CCC[C@@H]1O
- inhibition [5]: 70%

SMILES: O=C(Nc1ccccc1NC(=O)c1cccc(Cl)c1)c1cccc(Cl)c1
- IC50 [1]: 70000 nM

SMILES: O=C(CC(=O)NC1CCOC1=O)Cc1ccccc1Cl (configuration not stated)
- IC50 [6]: 6 µM

SMILES: CCCCCCCCCC(=O)Oc1c(-c2ccc(OC)cc2)oc2ccccc2c1=O
- inhibition [7]: 83.5%
- IC50 [8]: 13.9 µM
- inhibition [9]: 69.8%
- inhibition [10]: 11.6%
- inhibition (Pseudomonas aeruginosa [11]): 22.5%
- inhibition (Pseudomonas aeruginosa [12]): 28.1%
- inhibition [13]: 14.3%

SMILES: COc1ccc(CC(=O)CC(=O)NC2CCOC2=O)cc1 (configuration not stated)
- IC50 [6]: 3 µM

SMILES: Cc1ccc(CC(=O)CC(=O)NC2CCOC2=O)cc1 (configuration not stated)
- IC50 [6]: 4 µM

SMILES: CCC(=O)CC(=O)Nc1ccccc1O
- EC50 [15]: 17 µM
- EC50 [2]: 0.096 µM

SMILES: O=C(CC(=O)NC1CCOC1=O)Cc1ccc(Cl)cc1 (configuration not stated)
- IC50 [6]: 3 µM

SMILES: CCCCS(=O)(=O)NC1CCOC1=O (configuration not stated)
- IC50 [6]: 12 µM

SMILES: O=C(CC(=O)NC1CCOC1=O)Cc1ccc(Br)cc1 (configuration not stated)
- IC50 [6]: 2 µM

SMILES: CCCCCCC(=O)N[C@H]1CCOC1=O
- IC50 [16]: 1400 nM
- IC50 [17]: > 100 µM
- IC50 [1]: 2800 nM

SMILES: N#CSCC(=O)CC(=O)N[C@H]1CCOC1=O
- EC50 [15]: 2.6 µM
- EC50 [2]: 0.017 µM

SMILES: CCCCCCCCCC(=O)CC(=O)CCNC1CCCCC1=O (configuration not stated)
- inhibition [5]: 35%

SMILES: CCCCCCCCCNC(=O)CC(=O)c1ccccc1
- IC50 [1]: 2300 nM

SMILES: CCC(=O)CC(=O)Nc1cccc(OC)c1
- IC50 [17]: > 200 µM
- IC50 [1]: 4700 nM
- EC50 [2]: > 100 µM

SMILES: O=C(CC(=O)NC1CCOC1=O)Cc1ccc(C(F)(F)F)cc1 (configuration not stated)
- IC50 [6]: 10 µM

SMILES: CCCCCCCCC(=O)CC(=O)Nc1cccc(OC)c1
- inhibition [18]: 74%

SMILES: O=C(Cc1ccc(Br)cc1)N[C@H]1CCOC1=O
- IC50 [16]: 3700 nM
- IC50 [1]: 3500 nM

SMILES: CCCCCCCCS(=O)(=O)NC1CCOC1=O (configuration not stated)
- IC50 [6]: 10 µM

Now from value to molecule:

- IC50 [1]: 78 nM
- EC50 [2]: 4.5 µM
SMILES: CCCCCC(=O)CC(=O)N[C@H]1CCOC1=O

- IC50 [6]: 9 µM
SMILES: CCCCCCCS(=O)(=O)NC1CCOC1=O (configuration not stated)

- IC50 [14]: 6 µM
SMILES: CCCCCCCSCC(=O)N[C@H]1CCOC1=O

- IC50 [1]: 490 nM
- EC50 [2]: 33 µM
SMILES: O=C(CCCOc1ccc(Cl)cc1)N[C@H]1CCOC1=O

- IC50 [6]: 40 µM
SMILES: CCCCCCCCCS(=O)(=O)NC1CCOC1=O (configuration not stated)

- IC50 [6]: 2 to 3 µM
SMILES: O=C(COCc1ccccc1)NC1CCOC1=O (configuration not stated)

- IC50 [6]: 40 µM
SMILES: CCCC(=O)CS(=O)(=O)NC1CCOC1=O (configuration not stated)

- IC50 [1]: 160 nM
- EC50 [2]: 8.4 µM
SMILES: O=C(CCc1ccc(Br)cc1)N[C@H]1CCOC1=O

- EC50 [19]: 500 nM
SMILES: CC(C)CC(=O)CC(=O)N[C@H]1CCOC1=O

- EC50 [19]: > 6000 nM
SMILES: O=C(CCCC1CCCCC1)NC1CCOC1=O (configuration not stated)
